Assay results: article PMC3954873, “Enhanced Thermal Stability and Hydrolytic Ability of Bacillus subtilis Aminopeptidase by Removing the Thermal Sensitive Domain in the Non-Catalytic Region” (PLoS ONE, 2014)

Columns and labels:
[1] = target: T1, BSAP (Bacillus subtilis, UniProt P25152); assay: steady-state hydrolysis kinetics, non-linear regression; format: biochemical; details: free enzyme; assay as in previous study, conditions not printed here
T1 construct: gene ywaD; host B. subtilis WB600; purified as in previous study
From the text: steady-state hydrolysis kinetics, non-linear regression on BSAP

[2] = target: T2, BSAP-ΔPA (Bacillus subtilis, UniProt P25152, DEL101-225, form not given); assay: as above; format: biochemical; details: free enzyme; assay as in previous study, conditions not printed here
T2 construct: gene ywaD; protease-associated domain (101-225) deleted by inverse PCR; 330 residues before signal peptide removal; plasmid PMA5, host B. subtilis WB600; purified from culture supernatant
From the text: steady-state hydrolysis kinetics, non-linear regression on BSAP-ΔPA

T2 sequence (P25152 other isoform, or with tags, fused parts or gaps DEL101-225): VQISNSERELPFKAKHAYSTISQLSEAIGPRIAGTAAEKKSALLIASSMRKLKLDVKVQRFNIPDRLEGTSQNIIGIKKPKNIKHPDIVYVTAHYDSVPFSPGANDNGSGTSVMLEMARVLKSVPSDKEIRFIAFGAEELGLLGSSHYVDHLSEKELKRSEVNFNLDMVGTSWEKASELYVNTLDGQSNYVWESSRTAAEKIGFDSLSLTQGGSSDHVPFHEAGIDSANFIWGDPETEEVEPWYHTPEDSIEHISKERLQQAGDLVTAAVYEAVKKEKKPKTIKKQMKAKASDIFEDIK
T1 sequence (P25152 32-455): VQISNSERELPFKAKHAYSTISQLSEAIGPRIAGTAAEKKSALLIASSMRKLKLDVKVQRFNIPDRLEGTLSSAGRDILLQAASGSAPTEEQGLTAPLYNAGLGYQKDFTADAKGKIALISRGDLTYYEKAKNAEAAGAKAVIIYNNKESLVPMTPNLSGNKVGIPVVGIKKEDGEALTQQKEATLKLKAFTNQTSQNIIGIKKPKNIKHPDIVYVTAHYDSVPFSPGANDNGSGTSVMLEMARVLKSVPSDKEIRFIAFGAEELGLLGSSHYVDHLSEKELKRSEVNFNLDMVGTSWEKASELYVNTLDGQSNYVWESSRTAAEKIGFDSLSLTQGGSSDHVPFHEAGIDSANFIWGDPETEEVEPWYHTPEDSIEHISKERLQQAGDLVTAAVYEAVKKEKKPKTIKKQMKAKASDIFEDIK

K m [1]: 2.52 ± 0.11 mmol
K m [2]: 2.43 ± 0.23 mmol
SMILES: CC(C)C[C@H](N)C(=O)Nc1ccc([N+](=O)[O-])cc1 [Leu-pNA]
